According to the supplement of paper PMC11208160:

assay: recombinant UMI read abundance after kanamycin selection (control-corrected) (log10(CPM+1)); higher = more efficient recombination; extreme values may be limits of the assay; sequences stand for … in AGTGCAGAGAAAATCGGCCAGTTTTCTCTGCCTGCAGTCCGCATGCCGTGGGACCCCTTGGGTTCTAACCTGTTGCCTAGATTTATGCAGCGGACTGCCTTTCTCCCAAAGTGATAAACCGG…AGGTTGGTTTCACT; site = the 11-nt donor
In short: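 Sequencing read counts were converted to CPM, averaged over two replicates and scaled by control-derived factors. Results are given as log10(CPM+1). The reads covered the donor–target junction of recombinant UMIs from a pooled Escherichia coli screen of donor and donor-binding-loop pairs for the IS621 bridge recombinase.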
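Note: IS621 bridge recombinase in Escherichia coli cells against a fixed T5 target plasmid.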

| Sequence | recombinant UMI read abundance (log10) |
| --- | --- |
| CGAGCGCCATGGACCGGTTTTCCCGGTAATCCGTATTTGTG (site CGAGCGCCTCA) | 0.219 |
| CGAGCGCCATGGACCGGTTTTCCCGGTAATCCGTATTTGTG (site CTAGCGCCTCA) | 0.0326 |
| CGAGGAACATGGACCGGTTTTCCCGGTAATCCGTATTTGGG (site CGAGGAACTCC) | 1.53 |
| CGAGGAACATGGACCGGTTTTCCCGGTAATCCGTATTTGGG (site CGAGGACCTCC) | 0.0124 |
| CGAGGAACATGGACCGGTTTTCCCGGTAATCCGTATTTGGG (site CGAGGAGCTCC) | 0.376 |
| CGAGGAACATGGACCGGTTTTCCCGGTAATCCGTATTTGGG (site CGAGGATCTCC) | 1.59 |
| CGAGGAACATGGACCGGTTTTCCCGGTAATCCGTATTTGTT (site CGAGGAACTAA) | 2.78 |
| CGAGGAACATGGACCGGTTTTCCCGGTAATCCGTATTTGTT (site CGCGGAACTAA) | 0.0367 |
| CGAGGAACATGGACCGGTTTTCCCGGTAATCCGTATTTGTT (site CGGGGAACTAA) | 0.474 |
| CGAGGAACATGGACCGGTTTTCCCGGTAATCCGTATTTGTT (site CGTGGAACTAA) | 1.82 |
| CGAGGACCATGGACCGGTTTTCCCGGTAATCCGTATTTGGG (site AGAGGACCTCC) | 0.00643 |
| CGAGGACCATGGACCGGTTTTCCCGGTAATCCGTATTTGGG (site CAAGGACCTCC) | 0.019 |
| CGAGGACCATGGACCGGTTTTCCCGGTAATCCGTATTTGGG (site CCAGGACCTCC) | 0.059 |
| CGAGGACCATGGACCGGTTTTCCCGGTAATCCGTATTTGGG (site CGAAGACCTCC) | 0 |
| CGAGGACCATGGACCGGTTTTCCCGGTAATCCGTATTTGGG (site CGACGACCTCC) | 0.00414 |
| CGAGGACCATGGACCGGTTTTCCCGGTAATCCGTATTTGGG (site CGAGAACCTCC) | 0.0154 |
| CGAGGACCATGGACCGGTTTTCCCGGTAATCCGTATTTGGG (site CGAGCACCTCC) | 0 |
| CGAGGACCATGGACCGGTTTTCCCGGTAATCCGTATTTGGG (site CGAGGAACTCC) | 0.0189 |
| CGAGGACCATGGACCGGTTTTCCCGGTAATCCGTATTTGGG (site CGAGGACCTAC) | 0 |

| Sequence | recombinant UMI read abundance (log10) |
| --- | --- |
| CGAGGACCATGGACCGGTTTTCCCGGTAATCCGTATTTGGG (site CGAGGACCTCA) | 0.0034 |
| CGAGGACCATGGACCGGTTTTCCCGGTAATCCGTATTTGGG (site CGAGGACCTCC) | 0.0104 |
| CGAGGACCATGGACCGGTTTTCCCGGTAATCCGTATTTGGG (site CGAGGACCTCG) | 0 |
| CGAGGACCATGGACCGGTTTTCCCGGTAATCCGTATTTGGG (site CGAGGACCTCT) | 0.0267 |
| CGAGGACCATGGACCGGTTTTCCCGGTAATCCGTATTTGGG (site CGAGGACCTGC) | 0 |
| CGAGGACCATGGACCGGTTTTCCCGGTAATCCGTATTTGGG (site CGAGGACCTTC) | 0.00702 |
| CGAGGACCATGGACCGGTTTTCCCGGTAATCCGTATTTGGG (site CGAGGAGCTCC) | 0.00291 |
| CGAGGACCATGGACCGGTTTTCCCGGTAATCCGTATTTGGG (site CGAGGATCTCC) | 0.156 |
| CGAGGACCATGGACCGGTTTTCCCGGTAATCCGTATTTGGG (site CGAGGCCCTCC) | 0.0207 |
| CGAGGACCATGGACCGGTTTTCCCGGTAATCCGTATTTGGG (site CGAGGGCCTCC) | 0.0101 |
| CGAGGACCATGGACCGGTTTTCCCGGTAATCCGTATTTGGG (site CGAGGTCCTCC) | 0.00323 |
| CGAGGACCATGGACCGGTTTTCCCGGTAATCCGTATTTGGG (site CGAGTACCTCC) | 0 |
| CGAGGACCATGGACCGGTTTTCCCGGTAATCCGTATTTGGG (site CGATGACCTCC) | 0.0104 |
| CGAGGACCATGGACCGGTTTTCCCGGTAATCCGTATTTGGG (site CGCGGACCTCC) | 0 |
| CGAGGACCATGGACCGGTTTTCCCGGTAATCCGTATTTGGG (site CGGGGACCTCC) | 0 |
| CGAGGACCATGGACCGGTTTTCCCGGTAATCCGTATTTGGG (site CGTGGACCTCC) | 0.0136 |
| CGAGGACCATGGACCGGTTTTCCCGGTAATCCGTATTTGGG (site CTAGGACCTCC) | 0.00778 |
| CGAGGACCATGGACCGGTTTTCCCGGTAATCCGTATTTGGG (site GGAGGACCTCC) | 0.0223 |
| CGAGGACCATGGACCGGTTTTCCCGGTAATCCGTATTTGGG (site TGAGGACCTCC) | 0.02 |

| Sequence | recombinant UMI read abundance (log10) |
| --- | --- |
| CGAGGACCATGGACCGGTTTTCCCGGTAATCCGTATTTGGT (site CGAGGACCTAC) | 0.0053 |
| CGAGGACCATGGACCGGTTTTCCCGGTAATCCGTATTTGGT (site CGAGGACCTCC) | 0.0157 |
| CGAGGACCATGGACCGGTTTTCCCGGTAATCCGTATTTGGT (site CGAGGACCTGC) | 0 |
| CGAGGACCATGGACCGGTTTTCCCGGTAATCCGTATTTGGT (site CGAGGACCTTC) | 0.0098 |
| CGAGGACCATGGACCGGTTTTCCCGGTAATCCGTATTTGTG (site CGAGGACCTCA) | 0.00285 |
| CGAGGACCATGGACCGGTTTTCCCGGTAATCCGTATTTGTG (site CGAGGACCTCC) | 0.0189 |
| CGAGGACCATGGACCGGTTTTCCCGGTAATCCGTATTTGTG (site CGAGGACCTCG) | 0 |
| CGAGGACCATGGACCGGTTTTCCCGGTAATCCGTATTTGTG (site CGAGGACCTCT) | 0.0187 |
| CGAGGAGCATGGACCGGTTTTCCCGGTAATCCGTATTTGGG (site CGAGGAACTCC) | 0.567 |
| CGAGGAGCATGGACCGGTTTTCCCGGTAATCCGTATTTGGG (site CGAGGACCTCC) | 0.0303 |
| CGAGGAGCATGGACCGGTTTTCCCGGTAATCCGTATTTGGG (site CGAGGAGCTCC) | 0.918 |
| CGAGGAGCATGGACCGGTTTTCCCGGTAATCCGTATTTGGG (site CGAGGATCTCC) | 0.704 |
| CGAGGTCCATGGACCGGTTTTCCCGGTAATCCGTATTTGGG (site CGAGGACCTCC) | 0.0132 |
| CGAGGTCCATGGACCGGTTTTCCCGGTAATCCGTATTTGGG (site CGAGGCCCTCC) | 0.0189 |
| CGAGGTCCATGGACCGGTTTTCCCGGTAATCCGTATTTGGG (site CGAGGGCCTCC) | 0.0131 |
| CGAGGTCCATGGACCGGTTTTCCCGGTAATCCGTATTTGGG (site CGAGGTCCTCC) | 0.0134 |
| CGAGGTGCATGGACCGGTTTTCCCGGTAATCCGTATTTGAT (site CAAGGTGCTAT) | 1.84 |
| CGAGGTGCATGGACCGGTTTTCCCGGTAATCCGTATTTGAT (site CCAGGTGCTAT) | 1.37 |
| CGAGGTGCATGGACCGGTTTTCCCGGTAATCCGTATTTGAT (site CGAGGTGCTAT) | 2.36 |
